Measurements published in ChEMBL document CHEMBL1862790, “Optimisation of fenarimol series for the treatment of Chagas disease”.
Several values for one entry are separate records, joined by “and”; a condition that tells them apart may be missing. Identical values can stand only once.

Key:
[1] = DNDI: Cytotoxicity against L-6 rat myoblasts from skeletal muscle cells
[2] = tested on: Trypanosoma cruzi; assay: microbe, parasite or virus in culture; assay type: functional, organism-based, Tulahuen LacZ, Clone C4
[3] = tested on: Trypanosoma cruzi; assay: microbe, parasite or virus in culture; assay type: functional, Tulahuen LacZ, Clone C4
[4] = L6 rat skeletal muscle myoblast cells, IC50
[5] = Trypanosoma cruzi, Tulahuen LacZ, Clone C4
[6] = L6 rat skeletal muscle myoblast cells

Row | Structure (SMILES) | IC50 [1, 4] [nM] | IC50 [2, 5] [nM] | IC90 [3, 5] [nM] | IC50 [1, 6] [nM] | IC50 [2] [nM] | IC90 [3] | IC50 ([1]; l6, IC50) [nM]
1 | O=C(NC1CCCC1)NC1CCN(C(c2ccc(Cl)cc2)c2cccnc2)CC1 (stereo unspecified) | 62600 | 60 | 220 | – | – | – | –
2 | N#Cc1ccccc1C(O)(c1ccc(Cl)cc1)c1cccnc1 (stereo unspecified) | > 100000 | 62 | 150 | – | – | – | –
3 | OC(c1ccc(Cl)cc1)(c1cccnc1)c1ccc(Cl)cc1Cl (stereo unspecified) | – | 15 | 52.2 | 53100 | – | – | –
4 | CC(c1ccccc1)N1CCC(NC(c2cccnc2)c2ccc(Cl)cc2F)CC1 (stereo unspecified) | 19100 | 314 | 597 | – | – | – | –
5 | CC(C)C(=O)NC1CCN(C(c2ccc(C(F)(F)F)cc2)c2cnccn2)CC1 (stereo unspecified) | > 100000 | 560 | 940 | – | – | – | –
6 | O=C(c1nccs1)N1CCC(NC(c2ccc(C(F)(F)F)cc2)c2cccnc2)CC1 (stereo unspecified) | > 100000 | 57 | 455 | – | – | – | –
7 | O=C(Cc1ccccc1)N1CCC(NC(c2cnccn2)c2ccc(F)cc2F)CC1 (stereo unspecified) | > 100000 | 360 | 820 | – | – | – | –
8 | CS(=O)(=O)N1CCC(NC(c2ccc(C(F)(F)F)cc2)c2cnccn2)CC1 (stereo unspecified) | > 100000 | 970 | 2760 | – | – | – | –
9 | CCn1cc(C(NC2CCN(c3ccc(S(C)(=O)=O)cc3)CC2)c2cccnc2)cn1 (stereo unspecified) | > 100000 | 6040 | > 10000 | – | – | – | –
10 | CON=C(c1ccc(Cl)cc1)c1ccc(Cl)cc1 | > 100000 | > 10000 | 10000 | – | – | – | –
11 | O=C(c1ccc(C(F)(F)F)cc1)N1CCC(NC(c2ccc(C(F)(F)F)cc2)c2cnccn2)CC1 (stereo unspecified) | 39900 | 82 | 270 | – | – | – | –
12 | CCOC(=O)N1CCC(NC(c2ccc(Cl)cc2)c2cccnc2)CC1 (stereo unspecified) | > 100000 | 70 | 190 | – | – | – | –
13 | FC(F)(F)c1ccc(C(NC2CCN(c3ncccn3)CC2)c2cncs2)cc1 (stereo unspecified) | 76700 | 20 | 64 | – | – | – | –
14 | Cc1ncsc1C(=O)N1CCC(NC(c2ccc(C(F)(F)F)cc2)c2cccnc2)CC1 (stereo unspecified) | > 100000 | 67 | 218 | – | 58 | 180 nM | –
15 | O=C(c1cscn1)N1CCC(NC(c2ccc(C(F)(F)F)cc2)c2cccnc2)CC1 (stereo unspecified) | > 100000 | 218 | 833 | – | – | – | –
16 | CCOC(=O)N1CCN(C(c2ccc(Cl)cc2)c2cncnc2)CC1 (stereo unspecified) | > 100000 | 190 | 360 | – | – | – | –
17 | CC(C)Oc1ccc(C(c2cccnc2)N2CCC(NC(=O)c3ccccc3)CC2)cc1 (stereo unspecified) | > 100000 | 61 | 180 | – | – | – | –
18 | OC(c1ccc(C(F)(F)F)cc1)(c1cccnc1)c1ccc(Cl)cc1F (stereo unspecified) | – | 1.77 | 5 | > 100000 | – | – | –
19 | CC(C)Oc1ccc(C(c2cccnc2)N(C(=O)C2CC2)C2CCN(C(=O)C3CC3)CC2)cc1 (stereo unspecified) | > 100000 | > 1000 | > 1000 | – | – | – | –
20 | Fc1ccccc1C(c1ccc(C(F)(F)F)cc1)c1cccnc1 (stereo unspecified) | – | 150 | 510 | 64000 | – | – | –
21 | CO/C=C(/C(=O)OC)c1ccccc1Oc1cc(Oc2ccccc2C#N)ncn1 [AZOXYSTROBIN] | – | 3260 | 8680 | 50300 | – | – | –
22 | CCCCc1ccc(C(O)(c2ccc(Cl)cc2)c2ccc(Cl)cc2)cn1 | 54700 | > 1000 | > 1000 | – | – | – | –
23 | CCCCOC(c1ccc(Cl)cc1)c1cccnc1 (stereo unspecified) | 62600 | 124 | 296 | – | – | – | –
24 | O=S(=O)(Cc1ccccc1)N1CCN(C(c2ccc(Cl)cc2)c2cccnc2)CC1 (stereo unspecified) | 57700 | 32 | 140 | – | – | – | –
25 | O=C(NC1CCN(C(c2cnccn2)c2ccc(F)cc2F)CC1)c1ccc(C(F)(F)F)cc1 (stereo unspecified) | 63600 | 460 | 900 | – | – | – | –
26 | Cc1cc(C(=O)NC2CCN(C(c3ccc(C#N)cc3)c3cccnc3)CC2)nn1C (stereo unspecified) | > 100000 | 260 | 962 | – | – | – | –

Row | Structure (SMILES) | IC50 [1, 4] [nM] | IC50 [2, 5] [nM] | IC90 [3, 5] [nM] | IC50 [1, 6] [nM] | IC50 [2] [nM] | IC90 [3] | IC50 ([1]; l6, IC50) [nM]
27 | Cc1ccc(C(O)(c2cccnc2)c2ccccc2Cl)cc1 (stereo unspecified) | – | 70 | 160 | > 100000 | – | – | –
28 | OC(c1ccc(Cl)cc1)(c1cccnc1)c1cccc(F)c1F (stereo unspecified) | – | 107 | 256 | > 100000 | – | – | –
29 | CS(=O)(=O)N1CCC(CNC(c2ccc(C(F)(F)F)cc2)c2cnccn2)CC1 (stereo unspecified) | > 100000 | 450 | 940 | – | – | – | –
30 | CS(=O)(=O)N1CCC(NC(c2cccnc2)c2ccc(Cl)cc2F)CC1 (stereo unspecified) | > 100000 | 134 | 540 | – | – | – | –
31 | O=C1OC(c2ccc(Cl)cc2)(c2cccnc2)c2ccccc21 (stereo unspecified) | 84800 | 230 | 870 | – | – | – | –
32 | COc1ccccc1C(O)(c1ccc(Cl)cc1)c1cncnc1 (stereo unspecified) | > 100000 | 1140 | 8700 | – | – | – | –
33 | O=C(OCc1ccccc1)N1CCN(C(c2ccc(Cl)cc2)c2cncnc2)CC1 (stereo unspecified) | 52100 | 150 | 300 | – | – | – | –
34 | Cc1occc1C(=O)Nc1ccccc1 [FENFURAM] | – | 75000 | > 100000 | > 100000 | – | – | –
35 | CC(C)(C)C(=O)N1CCN(C(c2ccc(C#N)cc2)c2cccnc2)CC1 (stereo unspecified) | > 100000 | 254 | 696 | – | – | – | –
36 | N#Cc1cnc(N2CCC(NC(c3cccnc3)c3ccc(Cl)cc3F)CC2)s1 (stereo unspecified) | 55700 | 21 | 44.5 | – | – | – | –
37 | CC(C)Oc1ccc(C(O)(c2cccnc2)c2cnc(Cl)nc2)cc1 (stereo unspecified) | > 100000 | 293 | 670 | – | – | – | –
38 | Cc1noc(N2CCN(C(c3cncnc3)c3ccc(C(F)(F)F)cc3F)CC2)n1 (stereo unspecified) | > 100000 | 126 | 282 | – | – | – | –
39 | O=C(c1ccc(Cl)cc1)c1ccccc1Cl | > 100000 | > 10000 | 10000 | – | – | – | –
40 | O=C(NC1CCN(C(c2cncnc2)c2ccc(Cl)cc2F)CC1)c1ccc(F)cc1C(F)(F)F (stereo unspecified) | 71400 | 11 | 82.9 | – | – | – | –
41 | O=S(=O)(C1CCCCC1)N1CCN(C(c2cncnc2)c2ccc(Cl)cc2F)CC1 (stereo unspecified) | 61300 | 18 | 38 | – | – | – | –
42 | Cc1noc(C)c1C(=O)N1CCC(NC(c2ccc(C(F)(F)F)cc2)c2cccnc2)CC1 (stereo unspecified) | > 100000 | 20 | – | – | 36.5 | 46 nM and 96 nM | –
43 | Cc1cc(C(=O)NC2CCN(C(c3ccc(C#N)cc3)c3cccnc3)CC2)on1 (stereo unspecified) | > 100000 | 196 | 688 | – | – | – | –
44 | O=C(C1CC1)N1CCN(C(c2ccc(C(F)(F)F)cc2)c2cccnc2)CC1 (stereo unspecified) | > 100000 | 50.5 | 183 | – | – | – | –
45 | CCS(=O)(=O)N1CCN(C(c2ccc(Cl)cc2)c2cccnc2)CC1 (stereo unspecified) | > 100000 | 47 | 140 | – | – | – | –
46 | OC(c1cccnc1)(c1ccccc1Cl)c1ccccc1C(F)(F)F (stereo unspecified) | – | 297 | 724 | > 100000 | – | – | –
47 | OC(c1cccnc1)(c1cnc(Cl)nc1)c1ccc(Cl)cc1F (stereo unspecified) | > 100000 | 179 | 630 | – | – | – | –
48 | CC(C)(C)C(=O)N1CCC(NC(c2ccc(C(F)(F)F)cc2)c2cccnc2)CC1 (stereo unspecified) | > 100000 | 24 | 266 | – | – | – | –
49 | CC1CS(=O)(=O)CCN1/N=C/c1ccc([N+](=O)[O-])o1 (stereo unspecified) [NIFURTIMOX] | – | 230 | 820 | – | – | – | > 100000
50 | CC(C)CC(=O)N1CCN(C(c2ccc(Cl)cc2)c2cccnc2)CC1 (stereo unspecified) | > 100000 | 55 | 180 | – | – | – | –
51 | NC(=O)c1cccc(C(O)(c2ccc(Cl)cc2)c2cncnc2)c1 (stereo unspecified) | > 100000 | 920 | 2780 | – | – | – | –
